{"source": "ChEMBL document CHEMBL3045062", "about": "“Potent in vitro and in vivo antitubercular activity of certain newly synthesized indophenazine 1,3,5-trisubstituted pyrazoline derivatives bearing benzofuran” (Med Chem Res, 2011)"}
{"system": "Mycobacterium tuberculosis", "test": "Antitubercular activity against Isoniazid,rifampicin,gatifloxacin-resistant Mycobacterium tuberculosis after 60 days", "format": "functional", "units": {"MIC50": "µg/mL", "MIC90": "µg/mL"}}
{"smiles": "COc1c(N2CCNC(C)C2)c(F)cc2c(=O)c(C(=O)O)cn(C3CC3)c12", "note": "(stereo not given) [GATIFLOXACIN]", "MIC50": 14.7, "MIC90": 28.5}
{"smiles": "COc1ccc(C2CC(c3cc4cc(O)ccc4o3)=NN2C(=O)Cn2c3ccccc3c3nc4ccccc4nc32)cc1", "note": "(stereo not given)", "MIC50": 11.5, "MIC90": 15.4}
{"smiles": "O=C(Cn1c2ccccc2c2nc3ccccc3nc21)N1N=C(c2cc3cc(O)ccc3o2)CC1c1ccc(Cl)cc1", "note": "(stereo not given)", "MIC50": 5.23, "MIC90": 8.66}
{"smiles": "O=C(Cn1c2ccccc2c2nc3ccccc3nc21)N1N=C(c2cc3cc(O)ccc3o2)CC1c1ccco1", "note": "(stereo not given)", "MIC50": 6.4, "MIC90": 9.78}
{"smiles": "O=C(Cn1c2ccccc2c2nc3ccccc3nc21)N1N=C(c2cc3cc(O)ccc3o2)CC1c1cccc([N+](=O)[O-])c1", "note": "(stereo not given)", "MIC50": 1.2, "MIC90": 2}
{"smiles": "O=C(Cn1c2ccccc2c2nc3ccccc3nc21)N1N=C(c2cc3cc(O)ccc3o2)CC1/C=C/c1ccccc1", "note": "(stereo not given)", "MIC50": 5.6, "MIC90": 11.3}
{"smiles": "O=C(Cn1c2ccccc2c2nc3ccccc3nc21)N1N=C(c2cc3cc(O)ccc3o2)CC1c1ccc(O)cc1", "note": "(stereo not given)", "MIC50": 9.86, "MIC90": 11.2}
{"smiles": "O=C(Cn1c2ccccc2c2nc3ccccc3nc21)N1N=C(c2cc3cc(O)ccc3o2)CC1c1ccccc1[N+](=O)[O-]", "note": "(stereo not given)", "MIC50": 3.24, "MIC90": 7.2}
{"smiles": "CO[C@H]1/C=C/O[C@@]2(C)Oc3c(C)c(O)c4c(O)c(c(/C=N/N5CCN(C)CC5)c(O)c4c3C2=O)NC(=O)/C(C)=C\\C=C\\[C@H](C)[C@H](O)[C@@H](C)[C@@H](O)[C@@H](C)[C@H](OC(C)=O)[C@@H]1C", "note": "[RIFAMPIN]", "MIC50": 4.21, "MIC90": 7.37}
{"smiles": "O=C(Cn1c2ccccc2c2nc3ccccc3nc21)N1N=C(c2cc3cc(O)ccc3o2)CC1c1ccccc1Cl", "note": "(stereo not given)", "MIC50": 4.68, "MIC90": 8.61}
{"smiles": "COc1ccccc1C1CC(c2cc3cc(O)ccc3o2)=NN1C(=O)Cn1c2ccccc2c2nc3ccccc3nc21", "note": "(stereo not given)", "MIC50": 10.7, "MIC90": 13.6}
{"smiles": "O=C(Cn1c2ccccc2c2nc3ccccc3nc21)N1N=C(c2cc3cc(O)ccc3o2)CC1c1ccccc1O", "note": "(stereo not given)", "MIC50": 10.3, "MIC90": 12.6}
{"smiles": "CN(C)c1ccc(C2CC(c3cc4cc(O)ccc4o3)=NN2C(=O)Cn2c3ccccc3c3nc4ccccc4nc32)cc1", "note": "(stereo not given)", "MIC50": 5, "MIC90": 8.98}
{"smiles": "CC(=O)c1ccccc1C1CC(c2cc3cc(O)ccc3o2)=NN1C(=O)Cn1c2ccccc2c2nc3ccccc3nc21", "note": "(stereo not given)", "MIC50": 9.56, "MIC90": 7.45}
{"smiles": "COc1ccc(C2CC(c3cc4cc(O)ccc4o3)=NN2C(=O)Cn2c3ccccc3c3nc4ccccc4nc32)c(O)c1", "note": "(stereo not given)", "MIC50": 7.8, "MIC90": 13.1}
